Measured values: patent US20250213589A1, “METHODS AND COMPOSITIONS FOR TE[…]” (priority 2023, published 2025)

Assays:
[1] = FIG. 1: testosterone concentration in a patient at various time points after 200 mg of testosterone; details: after administration; FIG. 1, 200 mg of testosterone
Protocol: FIG. 1 is a phase diagram of the testosterone concentration in a patient at various time points after being administered 200 mg of testosterone.
Hormone levels were measured after co-administration of 200 mg of testosterone and 6.25 mg of enclomiphene for 30 days. Testosterone concentration was measured at +4 hours and +12 hours after administration. […] Testosterone concentration was measured at +4 hours after administration to capture the peak testosterone concentration (cMax) and +12 hours after administration to capture the trough testosterone concentration (cMin) to determine if endogenous testosterone suppression is prevented with the enclomiphene.

[2] = system: endogenous testosterone, LH, and FSH production; experiment: Example 3: hormone levels after administration of enclomiphene (pre-TRT); type: in vivo, human; details: after 6.25 mg of enclomiphene; n=1
Protocol: This example investigated the effects of administering a SERM (enclomiphene) on endogenous testosterone, LH, and FSH production.
Hormone levels were measured after administration of 6.25 mg of enclomiphene (see Table 3, n=1).

| Compound | time of testosterone peak [1] [h] | time until testosterone is out of the system [1] [h] | Calculated free testosterone levels [2] [pg/mL] | Sex Hormone Binding Globulin [2] [nmol/L] | Testosterone, Bioavailable [2] [ng/dL] | Testosterone, Free [2] [pg/mL] | Testosterone, Total, MS [2] [ng/dL] | increase of calculated free testosterone from baseline (114 pg/mL) [2] [%] |
| --- | --- | --- | --- | --- | --- | --- | --- | --- |
| C[C@]12CC[C@H]3[C@@H](CCC4=CC(=O)CC[C@@]43C)[C@@H]1CC[C@@H]2O [Testosterone, testosterone] | 3 to 5 | ≤ 12 | – | – | – | – | – | – |
| CCN(CC)CCOc1ccc(/C(=C(/Cl)c2ccccc2)c2ccccc2)cc1 [enclomiphene] | – | – | 197 | 20 | 322.9 | 153.7 | 724 | 73 |
